Results on two compounds are retold here after US7741314B2, “2-Methylene-(20R,25S)-19,27-Dinor-(22E)-Vitamin D Analogs” (Wisconsin Alumni Research Foundation, priority 2006, dated 2010).

Assay [1] concerns the target T1, full-length recombinant rat vitamin D receptor (Rattus norvegicus, UniProt P13053).
T1 construct: Full-length recombinant rat receptor was expressed in E. coli; histidine tag (C); made in house; host or cells: E. coli BL21 (DE3) Codon Plus RIL
T1 sequence (P13053 1-423): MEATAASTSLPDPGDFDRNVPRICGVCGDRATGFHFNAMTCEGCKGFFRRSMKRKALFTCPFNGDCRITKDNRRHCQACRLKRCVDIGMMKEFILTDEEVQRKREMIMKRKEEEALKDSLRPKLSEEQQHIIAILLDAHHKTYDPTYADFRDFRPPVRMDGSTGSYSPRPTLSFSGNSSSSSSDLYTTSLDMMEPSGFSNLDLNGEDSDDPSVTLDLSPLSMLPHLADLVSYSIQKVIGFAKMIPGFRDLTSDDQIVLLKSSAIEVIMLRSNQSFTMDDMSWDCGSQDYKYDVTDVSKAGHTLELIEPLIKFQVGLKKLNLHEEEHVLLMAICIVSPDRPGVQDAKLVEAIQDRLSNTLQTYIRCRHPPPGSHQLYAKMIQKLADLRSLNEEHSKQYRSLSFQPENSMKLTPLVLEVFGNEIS
As to the kind of experiment: Vitamin D receptor binding, competition with [3H]-1,25(OH)2D3. Particulars: FIG. 1. Here is the method:
Full-length recombinant rat receptor was expressed in E. coli BL21 (DE3) Codon Plus RIL cells and purified to homogeneity using two different column chromatography systems. The first system was a nickel affinity resin that utilizes the C-terminal histidine tag on this protein. The protein that was eluted from this resin was further purified using ion exchange chromatography (S-Sepharose Fast Flow). Aliquots of the purified protein were quick frozen in liquid nitrogen and stored at −80° C. until use. For use in binding assays, the protein was diluted in TEDK50 (50 mM Tris, 1.5 mM EDTA, pH7.4, 5 mM DTT, 150 mM KCl) with 0.1% Chaps detergent. The receptor protein and ligand concentration were optimized such that no more than 20% of the added radiolabeled ligand was bound to the receptor.
Radiolabeled and unlabeled ligands were added to 100 mcl of the diluted protein at a final ethanol concentration of ≦10%, mixed and incubated overnight on ice to reach binding equilibrium. The following day, 100 mcl of hydroxylapatite slurry (50%) was added to each tube and mixed at 10-minute intervals for 30 minutes. The hydroxylapaptite was collected by centrifugation and then washed three times with Tris-EDTA buffer (50 mM Tris, 1.5 mM EDTA, pH 7.4) containing 0.5% Titron X-100. […] Total binding was determined from the tubes containing only radiolabeled ligand.

Assay [2] deals with Human promyelocytic leukemia (HL60) cells. As to the kind of experiment: HL-60 differentiation (nitro blue tetrazolium reduction). Type of assay: cell-based. Particulars: FIG. 2; for EC50: HL-60 cells, four days after treatment, read-out: EC50, HL-60 cell differentiation. Here is the method: The study drugs were dissolved in ethanol and the concentrations determined using UV spectrophotometry. Serial dilutions were prepared so that a range of drug concentrations could be tested without changing the final concentration of ethanol (≦0.2%) present in the cell cultures.
Human promyelocytic leukemia (HL60) cells were grown in RPMI-1640 medium containing 10% fetal bovine serum. The cells were incubated at 37° C. in the presence of 5% CO2.
HL60 cells were plated at 1.2×10^5 cells/ml. Eighteen hours after plating, cells in duplicate were treated with drug. Four days later, the cells were harvested and a nitro blue tetrazolium reduction assay was performed (Collins et al., 1979; J. Exp. Med. 149:969-974). The percentage of differentiated cells was determined by counting a total of 200 cells and recording the number that contained intracellular black-blue formazan deposits. Verification of differentiation to monocytic cells was determined by measuring phagocytic activity (data not shown).

In assay [3] the test system is 24-hydroxylase (24Ohase) gene promoter in ROS 17/2.8 (bone) cells. As to the kind of experiment: In vitro transcription assay (luciferase reporter). Format: cell-based. Particulars: FIG. 3; for EC50: ROS 17/2.8 cells, 24Ohase promoter-luciferase, 16 h, read-out: EC50, transcriptional activity in bone cells. Here is the method:
Transcription activity was measured in ROS 17/2.8 (bone) cells that were stably transfected with a 24-hydroxylase (24Ohase) gene promoter upstream of a luciferase reporter gene (Arbour et al., 1998). Cells were given a range of doses. Sixteen hours after dosing the cells were harvested and luciferase activities were measured using a luminometer.
RLU=relative luciferase units.
In general terms: A reporter such as luciferase makes a cellular process visible.

Assay [4] relates to vitamin D-deficient rats. As to the kind of experiment: Bone calcium mobilization (serum calcium). Type of assay: in vivo, rat. Particulars: FIG. 4. Here is the method: (§1) Male, weanling Sprague-Dawley rats were placed on Diet 11 (0.47% Ca) diet+AEK for one week followed by Diet 11 (0.02% Ca)+AEK for 3 weeks. The rats were then switched to a diet containing 0.47% Ca for one week followed by two weeks on a diet containing 0.02% Ca. Dose administration began during the last week on 0.02% calcium diet. Four consecutive ip doses were given approximately 24 hours apart. Twenty-four hours after the last dose, blood was collected from the severed neck and the concentration of serum calcium determined as a measure of bone calcium mobilization. The first 10 cm of the intestine was also collected for intestinal calcium transport analysis using the everted gut sac method.

Assay [5] concerns vitamin D-deficient rats. As to the kind of experiment: Intestinal calcium transport (everted gut sac method). Type of assay: in vivo, rat. Particulars: FIG. 5; for intestinal calcium transport: everted gut sac. Here is the method:
as §1

Read-outs that look alike come from different tables or passages of the source.

With `C=C1[C@H](O)CC(=C/C=C2\CCC[C@]3(C)[C@@H]([C@H](C)/C=C/C[C@H](C)O)CC[C@@H]23)C[C@H]1O` [REN, 2-methylene-(20R,25S)-19,27-dinor-(22E)-1α,25-dihydroxyvitamin D3], in assay [1] (full-length recombinant rat VDR), the Ki (in general, a dissociation constant, usually derived from enzyme kinetics or from competition with a known ligand) stood at 400 pM. The “binding to the receptor compared to 1,25-(OH)2D3” value in assay [1] (in words) is reported as “bound equally to the receptor”. For the same compound, the EC50 – broadly, the concentration needed to bring the measured effect to its halfway point – stood at 1000 pM in assay [2] (Homo sapiens, 96 h) and 100 pM in assay [3]. Besides, the “potency on HL-60 cell differentiation compared to 1,25(OH)2D3” value in assay [2] (in words) is listed as “as potent as 1,25(OH)2D3”. Besides, the “transcriptional activity in bone cells compared to 1α,25-dihydroxyvitamin D3” value in assay [3] (in words) is listed as “about the same transcriptional activity”. Moreover, the “bone calcium mobilization (serum calcium)” value with vitamin D-deficient rats [4] (260 pmol/day ip for 4 consecutive days, rats on low calcium diet (0.02%)) is recorded as “did not result in mobilization of bone calcium”; with vitamin D-deficient rats [4] (7020 pmol/day, rats on low calcium diet (0.02%)), “without any substantial effect”. For the same compound, the “bone calcium mobilization activity compared to 1,25(OH)2D3” value in the assay on vitamin D-deficient rats [4] (in words) is “very little bone calcium mobilization activity”. Further, the intestinal calcium transport entry in the assay with vitamin D-deficient rats [5] (260 pmol/day) is given as “promotes intestinal calcium transport only slightly”; in the assay with vitamin D-deficient rats [5] (7020 pmol/day) it was “significant intestinal calcium transport activity”. Further, the “intestinal calcium transport activity compared to 1,25(OH)2D3” value in the assay with vitamin D-deficient rats [5] (in words) is recorded as “very little activity”.

As to `C=C1/C(=C\C=C2/CCC[C@]3(C)[C@@H]([C@H](C)CCCC(C)(C)O)CC[C@@H]23)C[C@@H](O)C[C@@H]1O` [1,25(OH)2D3, 1α,25-dihydroxyvitamin D3, reference compound], the figures for the EC50 in assay [2] and in assay [3] were 2000 pM and 200 pM, respectively. The serum calcium levels entry in the assay with vitamin D-deficient rats [4] (all dosages, rats on low calcium diet (0.02%)) is “increased serum calcium levels at all dosages”. Also, the intestinal calcium transport result in the assay on vitamin D-deficient rats [5] (260 pmol/day) is “promotes a significant increase”.
